# Test results reported in patent publication US11999782B2, “Therapeutic agents for the treatment of diseases associated with undesired cell proliferation” (Fundació Privada Institutció Catalana de Recerca I Estudis …, priority 2009, dated 2024).
# System: human LIF promoter
# Test: LIF promoter luciferase reporter assay
# Type: cell-based
# Conditions: U373MG cells as printed; 100 pM TGFβ1, 20 hours
# Method: FIG. 4. TGFβ induces the transcription of LIF through an activated Smad complex. (A) Diagrams of the indicator constructs of luciferase LIF. (B) A172 glioma cells were transfected with indicator constructs of luciferase LIF (−634/+32), (−276/+32), (−276/+32) mutSBE or (−73/+32). 16 hours after transfection, the cells were treated with 100 pM TGFβ1 for 20 hours and were analyzed for luciferase activity. (C) U373MG cells were treated with 100 pM TGFβ1 for 3 hours, and ChIP assays were performed with the indicated antibodies and the PCR primers indicated. (D, E) The levels of LIF were determined by means of qRT-PCR analysis in U373MG (D) or GEM neurospheres (E) treated with 100 pM TGFβ1 for 3 hours after silencing mediated by siRNA of the indicated members of the indicated Smad family. Western blotting was performed using antibodies specific for Smads or qRT-PCR of Smad4. The β-actin was determined as an internal normalization control.
# Genomic DNA of U373MG was used to amplify the −634/+32 region of the human LIF promoter which was cloned into the pGL2-basic luciferase vector. The deletion constructs (−267/+32), and (−73/+32) were generated by means of digestion of the construct (−634/+32). Two point mutations were introduced in positions −183 bp and −184 bp in the construct (−267/+32) to interrupt the Smad binding element (SBE) and generate the construct (−267/+32) mutSBE. […]
substance,measurement,value
"TGFβ: TGFβ1 (R&D Systems), used at 100 pM according to the figure legends",transactivation of LIF promoter reporter constructs (−634/+32 and −276/+32),capable of transactivating
